Results from PMC12362783 (Advanced Science, 2025).

Legend:
MDA‐MB‐436 = assay: Cell growth inhibition, CellTiter‐Glo (CTG); format: cell-based; conditions: Homo sapiens; for inhibition at 5 µM: MDA-MB-436, read-out: MDA‐MB‐436 inhibitory rate at certain concentration; for IC50: MDA-MB-436, 120 h, CTG, 5 days, n = 3
Experimental: (§1) All cells were grown in a humidified incubator at 37 °C and 5% CO2.
(§2) Growth viability was determined by the CellTiter‐Glo luminescent viability assay (Promega) 5 days after drug treatment. Cell viability was measured immediately after dosing (Day 0) and after 5 days of incubation using CellTiter‐Glo (CTG, Promega, G7573). Relative viability was calculated by normalizing the raw luminescence counts of the treated groups to those of the DMSO control groups. IC₅₀ values were calculated using sigmoidal dose‐response curve fitting with GraphPad Prism 9.0 software.

MDA‐MB‐231 = assay: Cell growth inhibition, CellTiter‐Glo (CTG); format: cell-based; conditions: Homo sapiens, MDA-MB-231, 120 h, read-out: IC50 MDA‐MB‐231; CTG, 5 days, n = 3
Experimental: as §1
(§3) […] […] Relative viability was calculated by normalizing the raw luminescence counts of the treated groups to those of the DMSO control groups. IC₅₀ values were calculated using sigmoidal dose‐response curve fitting with GraphPad Prism 9.0 software.

MDA‐MB‐468 = assay: Cell growth inhibition, CellTiter‐Glo (CTG); format: cell-based; conditions: Homo sapiens, MDA-MB-468, 120 h; CTG, 5 days, n = 3
Experimental: as §1, §3

[1] = system: TNBC cells (MDA‐MB‐231, MDA‐MB‐468, MDA‐MB‐436); assay: Anti‐proliferative activity across three TNBC cell lines (summary); format: cell-based
Experimental: as §2, with “Cells were grown at 37 °C, under 95% air and 5% CO₂ until they reached about 70% confluence and were subcultured at least twice before the experiment. Cells were seeded at a density of 1000 cells/well in two 384‐well white plates, and the plates were placed in a 5% CO₂ incubator overnight. Growth” for “Growth”

PARP1 = PARP1 (Homo sapiens, UniProt P09874); assay: PARP enzymatic inhibition ELISA (PARP1); format: biochemical; conditions: for IC50: n = 3, mean ± SD
Experimental: The PARP activity assay was performed by ChemPartner (Shanghai, China). Each well was precoated with histone (final conc.: 100 ng mL^−1) diluted in PBS buffer (contains 10 mmol L^−1 NaH2PO4 and 150 mmol L^−1 NaCl, pH 7.4) by incubation at 4 °C overnight. […] The reaction was initiated by the addition of 10 µL of PARP (final conc.: 0.007 nM/well) at room temperature for 60 min. Add 20 µL of anti‐Poly/Mono‐ADP Ribose Rabbit mAb. Incubate for 1.5 h at room temperature and wash the plate three times using PBST buffer. […] Incubate for 1 h at room temperature and wash the plate three times using PBST buffer. Add 25 µL Femto‐ECL Substrate A and Femto‐ECL Substrate B (1:1) mix. Immediately read chemiluminescence on Envision (Revvity, USA).

ATR = biological target: T1, ATR (Homo sapiens, UniProt Q13535); assay: ATR kinase inhibition, Mobility Shift Assay; format: biochemical; conditions: for IC50: n = 3, mean ± SD
T1 construct: purchased Eurofins 14-953
Experimental: The in vitro ATR kinase inhibitory activities were determined by ChemPartner Co., Ltd. (Shanghai, China) using the Mobility Shift Assay. The tested compound was dissolved with DMSO and diluted to 1000/3 × of the final desired highest inhibitor concentration in the reaction. […] The assay wells were incubated at 28 °C for 4 h.

T1 sequence (Q13535 whole entry): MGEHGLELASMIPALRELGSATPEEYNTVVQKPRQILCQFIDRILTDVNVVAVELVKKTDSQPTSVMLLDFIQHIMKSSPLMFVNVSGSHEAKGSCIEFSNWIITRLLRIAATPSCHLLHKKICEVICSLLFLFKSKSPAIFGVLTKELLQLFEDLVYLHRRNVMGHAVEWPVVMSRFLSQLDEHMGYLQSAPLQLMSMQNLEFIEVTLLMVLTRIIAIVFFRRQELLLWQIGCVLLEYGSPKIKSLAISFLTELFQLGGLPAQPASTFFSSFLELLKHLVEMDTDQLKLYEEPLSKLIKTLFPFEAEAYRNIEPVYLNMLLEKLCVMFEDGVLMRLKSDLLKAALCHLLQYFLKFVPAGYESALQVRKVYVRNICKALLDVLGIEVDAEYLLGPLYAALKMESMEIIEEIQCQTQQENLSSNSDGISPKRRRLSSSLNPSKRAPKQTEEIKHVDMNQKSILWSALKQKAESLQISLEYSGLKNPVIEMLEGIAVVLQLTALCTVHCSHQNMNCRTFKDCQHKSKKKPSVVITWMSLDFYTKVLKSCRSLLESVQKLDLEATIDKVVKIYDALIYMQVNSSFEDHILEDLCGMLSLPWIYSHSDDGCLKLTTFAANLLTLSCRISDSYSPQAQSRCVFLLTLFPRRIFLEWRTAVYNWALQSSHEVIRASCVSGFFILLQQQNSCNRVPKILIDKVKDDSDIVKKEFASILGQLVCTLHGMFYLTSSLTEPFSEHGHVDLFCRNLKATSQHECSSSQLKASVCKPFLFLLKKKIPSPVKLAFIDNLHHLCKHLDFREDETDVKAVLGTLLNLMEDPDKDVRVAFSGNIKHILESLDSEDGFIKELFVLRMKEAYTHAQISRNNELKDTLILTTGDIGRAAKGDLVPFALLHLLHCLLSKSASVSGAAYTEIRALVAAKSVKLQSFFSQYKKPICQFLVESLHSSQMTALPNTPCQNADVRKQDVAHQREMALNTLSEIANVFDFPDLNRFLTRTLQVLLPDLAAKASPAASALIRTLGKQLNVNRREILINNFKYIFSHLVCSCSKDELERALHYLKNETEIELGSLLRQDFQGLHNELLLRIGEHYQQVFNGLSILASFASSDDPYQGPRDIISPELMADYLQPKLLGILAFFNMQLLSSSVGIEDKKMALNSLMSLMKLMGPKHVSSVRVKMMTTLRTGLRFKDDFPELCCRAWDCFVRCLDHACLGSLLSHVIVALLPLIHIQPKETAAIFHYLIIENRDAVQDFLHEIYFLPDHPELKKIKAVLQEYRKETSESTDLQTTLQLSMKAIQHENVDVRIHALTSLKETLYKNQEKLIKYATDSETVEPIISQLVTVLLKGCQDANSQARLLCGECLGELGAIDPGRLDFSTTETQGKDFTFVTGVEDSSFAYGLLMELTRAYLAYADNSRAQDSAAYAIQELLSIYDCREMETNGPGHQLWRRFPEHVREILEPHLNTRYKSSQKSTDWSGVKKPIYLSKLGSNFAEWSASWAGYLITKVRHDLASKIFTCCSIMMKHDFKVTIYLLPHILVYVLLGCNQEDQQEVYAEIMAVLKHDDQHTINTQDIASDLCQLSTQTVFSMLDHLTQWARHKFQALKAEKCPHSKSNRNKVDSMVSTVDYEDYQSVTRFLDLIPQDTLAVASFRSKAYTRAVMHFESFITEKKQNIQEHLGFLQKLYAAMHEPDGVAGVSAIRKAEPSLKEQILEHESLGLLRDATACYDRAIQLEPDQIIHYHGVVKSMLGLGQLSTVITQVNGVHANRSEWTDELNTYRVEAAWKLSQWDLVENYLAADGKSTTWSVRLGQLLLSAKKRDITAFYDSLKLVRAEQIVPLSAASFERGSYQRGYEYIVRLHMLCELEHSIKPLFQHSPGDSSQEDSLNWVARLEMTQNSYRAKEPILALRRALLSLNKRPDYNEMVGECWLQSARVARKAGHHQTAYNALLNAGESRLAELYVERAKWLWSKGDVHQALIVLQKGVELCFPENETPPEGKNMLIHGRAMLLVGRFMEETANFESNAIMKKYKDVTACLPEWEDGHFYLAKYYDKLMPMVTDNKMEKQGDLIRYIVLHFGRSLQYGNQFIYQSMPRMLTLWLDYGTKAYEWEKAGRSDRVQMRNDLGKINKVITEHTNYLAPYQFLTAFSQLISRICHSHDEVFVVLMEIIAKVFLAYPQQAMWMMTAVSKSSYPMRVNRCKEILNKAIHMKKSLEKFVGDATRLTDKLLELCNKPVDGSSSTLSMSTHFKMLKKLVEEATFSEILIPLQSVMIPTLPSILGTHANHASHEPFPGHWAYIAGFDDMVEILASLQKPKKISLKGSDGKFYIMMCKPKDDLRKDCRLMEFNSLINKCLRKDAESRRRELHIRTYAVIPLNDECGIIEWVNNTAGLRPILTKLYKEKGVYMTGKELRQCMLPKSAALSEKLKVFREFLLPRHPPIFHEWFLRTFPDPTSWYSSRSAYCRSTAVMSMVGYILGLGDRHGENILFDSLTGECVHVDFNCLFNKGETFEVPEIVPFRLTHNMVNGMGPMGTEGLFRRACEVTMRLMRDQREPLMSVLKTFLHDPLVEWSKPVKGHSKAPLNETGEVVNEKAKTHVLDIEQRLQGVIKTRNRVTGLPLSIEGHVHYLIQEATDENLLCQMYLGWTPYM
T1 sequence (Q8WXE1 whole entry partner): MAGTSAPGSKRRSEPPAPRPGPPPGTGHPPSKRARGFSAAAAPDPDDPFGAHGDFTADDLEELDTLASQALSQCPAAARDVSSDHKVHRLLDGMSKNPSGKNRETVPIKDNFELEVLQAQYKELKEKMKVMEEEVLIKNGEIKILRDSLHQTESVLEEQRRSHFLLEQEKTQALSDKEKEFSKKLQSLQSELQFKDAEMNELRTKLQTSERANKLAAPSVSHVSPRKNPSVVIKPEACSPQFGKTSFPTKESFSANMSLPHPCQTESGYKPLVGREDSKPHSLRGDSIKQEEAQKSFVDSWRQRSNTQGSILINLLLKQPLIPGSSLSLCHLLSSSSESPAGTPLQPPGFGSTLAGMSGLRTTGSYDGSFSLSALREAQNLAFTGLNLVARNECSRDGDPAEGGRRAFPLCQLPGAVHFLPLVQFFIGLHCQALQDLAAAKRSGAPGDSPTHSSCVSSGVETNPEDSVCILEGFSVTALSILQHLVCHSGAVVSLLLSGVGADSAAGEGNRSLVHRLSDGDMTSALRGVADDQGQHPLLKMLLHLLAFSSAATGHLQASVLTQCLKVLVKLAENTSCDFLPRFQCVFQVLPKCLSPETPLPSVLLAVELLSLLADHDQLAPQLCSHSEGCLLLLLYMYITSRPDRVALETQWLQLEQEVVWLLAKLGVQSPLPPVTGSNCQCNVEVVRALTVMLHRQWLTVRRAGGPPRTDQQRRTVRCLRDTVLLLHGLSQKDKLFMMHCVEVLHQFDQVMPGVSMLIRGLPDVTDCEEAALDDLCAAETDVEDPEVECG
PARP1, sequence (P09874 whole entry): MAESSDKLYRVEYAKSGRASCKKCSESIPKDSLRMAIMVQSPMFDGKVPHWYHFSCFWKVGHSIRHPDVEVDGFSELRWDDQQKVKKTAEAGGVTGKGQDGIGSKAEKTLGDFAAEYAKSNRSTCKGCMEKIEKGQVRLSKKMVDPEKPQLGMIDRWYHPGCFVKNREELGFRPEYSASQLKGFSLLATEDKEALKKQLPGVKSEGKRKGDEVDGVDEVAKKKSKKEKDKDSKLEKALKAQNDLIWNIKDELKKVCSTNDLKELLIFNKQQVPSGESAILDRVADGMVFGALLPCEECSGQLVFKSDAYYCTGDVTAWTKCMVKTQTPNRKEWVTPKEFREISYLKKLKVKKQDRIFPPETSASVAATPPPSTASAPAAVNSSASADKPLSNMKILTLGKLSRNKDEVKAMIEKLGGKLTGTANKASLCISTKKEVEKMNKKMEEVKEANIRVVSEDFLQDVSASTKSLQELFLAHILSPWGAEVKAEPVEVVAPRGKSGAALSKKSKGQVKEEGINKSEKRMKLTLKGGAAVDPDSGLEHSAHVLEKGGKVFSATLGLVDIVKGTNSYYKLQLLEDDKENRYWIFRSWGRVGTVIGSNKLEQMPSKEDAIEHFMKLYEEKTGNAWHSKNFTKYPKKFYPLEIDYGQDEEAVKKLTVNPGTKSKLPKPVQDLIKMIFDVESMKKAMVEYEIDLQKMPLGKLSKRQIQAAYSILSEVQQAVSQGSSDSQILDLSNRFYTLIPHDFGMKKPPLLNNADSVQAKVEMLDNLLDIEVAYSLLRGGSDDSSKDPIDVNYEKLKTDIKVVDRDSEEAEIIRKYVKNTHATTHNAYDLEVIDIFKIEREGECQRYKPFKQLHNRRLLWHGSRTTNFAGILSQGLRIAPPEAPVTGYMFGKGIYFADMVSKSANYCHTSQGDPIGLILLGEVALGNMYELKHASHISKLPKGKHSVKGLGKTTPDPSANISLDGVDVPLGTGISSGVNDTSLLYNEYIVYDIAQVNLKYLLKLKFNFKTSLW

| SMILES | inhibition at 5 µM (MDA‐MB‐436) | IC50 (MDA‐MB‐231) | IC50 (MDA‐MB‐468) | IC50 (MDA‐MB‐436) | activity against TNBC cells (SAR summary in words, Figure 7) [1] | activity against PARP1 (SAR summary in words, Figure 7) (PARP1) | IC50 (PARP1) | activity against ATR (SAR summary in words, Figure 7) (ATR) | IC50 (ATR) |
| --- | --- | --- | --- | --- | --- | --- | --- | --- | --- |
| C[C@@H]1COCCN1c1cc(C2(N)CC2)nc(-c2ccnc3[nH]ccc23)n1 [Compound 23] | 20.5% | 40.7 ± 1.36 µM | > 50 µM | – | – | – | – | – | – |
| C[C@@H]1COCCN1c1cc(C2(NC(=O)c3cc(Cc4n[nH]c(=O)c5ccccc45)ccc3F)CC2)nc(-c2ccnc3[nH]ccc23)n1 [Compound A1, (R)‐2‐fluoro‐N‐(1‐(6‐(3‐methylmorpholino)‐2‐(1H‐pyrrolo[2,3‐b]pyridin‐4‐yl)pyrimidin‐4‐yl)cyclopropyl)‐5‐((4‐oxo‐3,4‐dihydrophthalazin‐1‐yl)methyl)benzamide] | – | 5.26 ± 1.14 µM | 8.54 ± 1.07 µM | 2.92 ± 2.05 µM | weak activity | moderate activity | 1.15 ± 0.043 µM | moderate activity | 0.215 ± 0.022 µM |
| C[C@@H]1COCCN1c1cc(CNC(=O)CCNC(=O)c2cc(Cc3n[nH]c(=O)c4ccccc34)ccc2F)nc(-c2ccnc3[nH]ccc23)n1 [Compound B3, (R)‐2‐fluoro‐N‐(3‐(((6‐(3‐methylmorpholino)‐2‐(1H‐pyrrolo[2,3‐b]pyridin‐4‐yl)pyrimidin‐4‐yl)methyl)amino)‐3‐oxopropyl)‐5‐((4‐oxo‐3,4‐dihydrophthalazin‐1‐yl)methyl)benzamide] | 34.9% | 14.3 ± 1.4 µM | 17.7 ± 0.53 µM | – | – | – | 0.0095 ± 0.0018 µM | – | 0.347 ± 0.0157 µM |
| C[C@@H]1COCCN1c1cc(CN)nc(-c2ccnc3[nH]ccc23)n1 [Compound 28] | 21.4% | > 50 µM | 40.8 ± 4.45 µM | – | – | – | – | – | – |
| C[C@@H]1COCCN1c1cc(CNC(=O)c2cc(Cc3n[nH]c(=O)c4ccccc34)ccc2F)nc(-c2ccnc3[nH]ccc23)n1 [Compound B1, (R)‐2‐fluoro‐N‐((6‐(3‐methylmorpholino)‐2‐(1H‐pyrrolo[2,3‐b]pyridin‐4‐yl)pyrimidin‐4‐yl)methyl)‐5‐((4‐oxo‐3,4‐dihydrophthalazin‐1‐yl)methyl)benzamide] | – | 3.05 ± 0.76 µM | 7.88 ± 1.14 µM | 0.91 ± 0.05 µM | weak activity | moderate activity | 0.42 ± 0.031 µM | moderate activity | 0.0395 ± 0.0037 µM |
| C[C@@H]1COCCN1c1cc(C2(NC(=O)N3CCN(C(=O)c4cc(Cc5n[nH]c(=O)c6ccccc56)ccc4F)CC3)CC2)nc(-c2ccnc3[nH]ccc23)n1 [Compound A6, (R)‐4‐(2‐fluoro‐5‐((4‐oxo‐3,4‐dihydrophthalazin‐1‐yl)methyl)benzoyl)‐N‐(1‐(6‐(3‐methylmorpholino)‐2‐(1H‐pyrrolo[2,3‐b]pyridin‐4‐yl)pyrimidin‐4‐yl)cyclopropyll)piperazine‐1‐carboxamide] | – | 4.16 ± 1.09 µM | 1.15 ± 0.01 µM | 0.59 ± 0.01 µM | – | – | 0.00098 ± 0.00088 µM | – | > 0.5 µM |
| C[C@@H]1COCCN1c1cc(CNC(=O)C2CCN(C(=O)c3cc(Cc4n[nH]c(=O)c5ccccc45)ccc3F)CC2)nc(-c2ccnc3[nH]ccc23)n1 [Compound B5, (R)‐1‐(2‐fluoro‐5‐((4‐oxo‐3,4‐dihydrophthalazin‐1‐yl)methyl)benzoyl)‐N‐((6‐(3‐methylmorpholino)‐2‐(1H‐pyrrolo[2,3‐b]pyridin‐4‐yl)pyrimidin‐4‐yl)methyl)piperidine‐4‐carboxamide] | – | 4.48 ± 1.08 µM | 1.46 ± 0.1 µM | 1.19 ± 0.23 µM | – | – | 0.0012 ± 0.0003 µM | – | 0.0367 ± 0.0046 µM |
| C[C@@H]1COCCN1c1cc(CNC(=O)CNC(=O)c2cc(Cc3n[nH]c(=O)c4ccccc34)ccc2F)nc(-c2ccnc3[nH]ccc23)n1 [Compound B2, (R)‐2‐fluoro‐N‐(2‐(((6‐(3‐methylmorpholino)‐2‐(1H‐pyrrolo[2,3‐b]pyridin‐4‐yl)pyrimidin‐4‐yl)methyl)amino)‐2‐oxoethyl)‐5‐((4‐oxo‐3,4‐dihydrophthalazin‐1‐yl)methyl)benzamide] | 40.3% | 10.58 ± 0.01 µM | 8.41 ± 0.61 µM | – | – | – | 0.016 ± 0.0024 µM | – | 0.168 ± 0.0078 µM |
| C[C@@H]1COCCN1c1cc(CNC(=O)CCCNC(=O)c2cc(Cc3n[nH]c(=O)c4ccccc34)ccc2F)nc(-c2ccnc3[nH]ccc23)n1 [Compound B4, (R)‐2‐fluoro‐N‐(4‐(((6‐(3‐methylmorpholino)‐2‐(1H‐pyrrolo[2,3‐b]pyridin‐4‐yl)pyrimidin‐4‐yl)methyl)amino)‐4‐oxobutyl)‐5‐((4‐oxo‐3,4‐dihydrophthalazin‐1‐yl)methyl)benzamide] | 47% | 14.3 ± 3.91 µM | 6.83 ± 0.1 µM | – | – | – | 0.0062 ± 0.0009 µM | – | 0.111 ± 0.0081 µM |
| C[C@@H]1COCCN1c1cc(C2(NC(=O)c3ccc(N4CCN(C(=O)c5cc(Cc6n[nH]c(=O)c7ccccc67)ccc5F)CC4)cc3)CC2)nc(-c2ccnc3[nH]ccc23)n1 [Compound A11, (R)‐4‐(4‐(2‐fluoro‐5‐((4‐oxo‐3,4‐dihydrophthalazin‐1‐yl)methyl)benzoyl)piperazin‐1‐yl)‐N‐(1‐(6‐(3‐methylmorpholino)‐2‐(1H‐pyrrolo[2,3‐b]pyridin‐4‐yl)pyrimidin‐4‐yl)cyclopropyl)benzamide] | – | > 50 µM | 0.57 ± 0.02 µM | – | – | – | 0.0023 ± 0.0005 µM | – | 0.292 ± 0.0139 µM |
| C[C@@H]1COCCN1c1cc(CNS(=O)(=O)C2CCN(C(=O)c3cc(Cc4n[nH]c(=O)c5ccccc45)ccc3F)CC2)nc(-c2ccnc3[nH]ccc23)n1 [Compound B6, (R)‐1‐(2‐fluoro‐5‐((4‐oxo‐3,4‐dihydrophthalazin‐1‐yl)methyl)benzoyl)‐N‐((6‐(3‐methylmorpholino)‐2‐(1H‐pyrrolo[2,3‐b]pyridin‐4‐yl)pyrimidin‐4‐yl)methyl)piperidine‐4‐sulfonamide] | – | 3.96 ± 2.05 µM | 0.7 ± 0.07 µM | 0.78 ± 0.08 µM | – | – | 0.00046 ± 0.0001 µM | – | 0.112 ± 0.0053 µM |
| C[C@@H]1COCCN1c1cc(CNC(=O)N2CCN(C(=O)c3cc(Cc4n[nH]c(=O)c5ccccc45)ccc3F)CC2)nc(-c2ccnc3[nH]ccc23)n1 [Compound B7, (R)‐4‐(2‐fluoro‐5‐((4‐oxo‐3,4‐dihydrophthalazin‐1‐yl)methyl)benzoyl)‐N‐((6‐(3‐methylmorpholino)‐2‐(1H‐pyrrolo[2,3‐b]pyridin‐4‐yl)pyrimidin‐4‐yl)methyl)piperazine‐1‐carboxamide] | – | 1.6 ± 0.09 µM | 0.96 ± 0.04 µM | 1.29 ± 0.56 µM | – | – | 0.00076 ± 9e-05 µM | – | 0.0788 ± 0.0062 µM |
| C[C@@H]1COCCN1c1cc(CNC(=O)c2ccc(C(=O)N3CCN(C(=O)c4cc(Cc5n[nH]c(=O)c6ccccc56)ccc4F)CC3)cn2)nc(-c2ccnc3[nH]ccc23)n1 [Compound B11, (R)‐5‐(4‐(2‐fluoro‐5‐((4‐oxo‐3,4‐dihydrophthalazin‐1‐yl)methyl)benzoyl)piperazine‐1‐carbonyl)‐N‐((6‐(3‐methylmorpholino)‐2‐(1H‐pyrrolo[2,3‐b]pyridin‐4‐yl)pyrimidin‐4‐yl)methyl) picolinamide] | – | > 50 µM | 0.48 ± 0.03 µM | – | – | – | 0.001 ± 0.00013 µM | – | 0.0311 ± 0.0047 µM |
| C[C@@H]1COCCN1c1cc(C2(NC(=O)C3CCN(C(=O)c4cc(Cc5n[nH]c(=O)c6ccccc56)ccc4F)CC3)CC2)nc(-c2ccnc3[nH]ccc23)n1 [Compound A5, (R)‐1‐(2‐fluoro‐5‐((4‐oxo‐3,4‐dihydrophthalazin‐1‐yl)methyl)benzoyl)‐N‐(1‐(6‐(3‐methylmorpholino)‐2‐(1H‐pyrrolo[2,3‐b]pyridin‐4‐yl)pyrimidin‐4‐yl)cyclopropyll)piperidine‐4‐carboxamide] | – | 3.63 ± 1.41 µM | 0.57 ± 0.08 µM | 0.57 ± 0.04 µM | – | – | 0.00108 ± 0.00074 µM | – | 0.143 ± 0.011 µM |
